{
  "source": "patent US6855693B2",
  "about": "“Peptides for activation and inhibition of δPKC” (The Board of Trustees of the Leland Stanford Junior …, priority 2001, dated 2005)",
  "key": {"whole rat hearts": {"system": "whole rat hearts", "experiment": "Ex vivo whole hearts, peptide during reperfusion after 20 min global ischemia, functional recovery", "description": "Another study was performed to determine if the peptides could be delivered to an intact organ to provide protection after an ischemic insult. In this study, as described in Example 4, the rat heart model described above was used and the hemodynamic parameters were measured during the 20 minutes of global ischemia and the […]. During the reperfusion only, δV1-1 was delivered at a concentration of 500 nM.\nIn a similar study, five pairs of rats were treated as described in Example 4, where the ex vivo hearts were subjected to 20 minutes of ischemia and 30 minutes of reperfusion. During the first 20 minutes of reperfusion, 500 nM of δV1-1 or vehicle control was administered.\nRat hearts were isolated as described in Example 3. The left ventricular pressure and its real-time derivative (dP/dt) were monitored via a latex balloon placed in the ventricular cavity and at a constant heart rate by pacing (3.3 Hz) and at a constant coronary flow (10 ml/min.). The hearts were subjected to 20 minutes of ischemia and 30 minutes of re-perfusion. During the first 20 minutes of reperfusion, 500 nM of δV1-1 or vehicle control was delivered."}, "adult female pigs [1]": {"system": "adult female pigs", "experiment": "In vivo pig cardiac ischemia (30 min LAD balloon occlusion), infarct of area at risk after five days", "conditions": "approximately 20 μg Tat-conjugated peptide during last 10 minutes of 30 minute occlusion; five days later", "description": "In another study in support of the invention, the ability of δV1-1 peptide to protect tissue from damage due to an ischemic or hypoxic event was evaluated by administering the peptide in vivo to adult female pigs. As detailed in Example 5, δV1-1 peptide was administered to the pigs during the last 10 minutes of a 30 minute ischemic insult. Five days later, the hearts were analyzed for tissue damage. Adult female pigs, 35-40 kg in weight, were anesthetized and a catheter was introduced through the carotid artery into the heart. Using conventional intervention cardiology techniques, a wire was placed through a catheter and into the left anterior descending artery. A balloon was run over this wire to a site of occlusion where it was then inflated to block blood flow for 30 minutes. […] From this the percent infarct per area at risk for each slice and for the entire heart was determined."}, "adult female pigs [2]": {"system": "adult female pigs", "experiment": "Pathology of blood and tissue samples of the treated pigs", "design": "species or system pig", "conditions": "pigs treated in vivo with δV1-1", "description": "(§1) Blood samples and tissue samples of lung, liver, brain, gut, kidney, etc. were collected from the animals and analyzed at a pathology lab. […] Kidney, liver, brain, and lung functions were normal and all blood analyses were also normal."}, "mouse model": {"system": "mouse model", "experiment": "Safety of two injections in the mouse model", "format": "in vivo", "conditions": "1 μM final concentration", "description": "as §1"}, "Sprague-Dawley rats": {"system": "Sprague-Dawley rats", "experiment": "Rat cerebral ischemia (stroke) model, middle cerebral artery occlusion, infarct area", "format": "in vivo", "conditions": "Tat-conjugated δV1-1 into carotid artery prior to ischemia and at end of 2 hour occlusion, final blood concentration 1 μM; brains 24 hrs later", "description": "In another study performed in support of the invention, the ability of δV1-1 peptide (SEQ ID NO:4) to inhibit damage to the brain as a result of stroke was examined. In this study, described in Example 6, a rat cerebral ischemia model was used. Ischemia was induced using an intraluminal suture to occlude the ostium of the middle cerebral artery. δV1-1 conjugated to Tat peptide (SEQ ID NO:9) or the Tat peptide alone were injected into the carotid artery before and after a two hour occlusion period. The brain from each animal was harvested 24 hours later, stained, and examined.\nAdult male Sprague-Dawley rats weighing between 280-320 g were used. Animals were maintained under isofluorane anesthesia during all surgical procedures. Physiological parameters were monitored and maintained in the normal range. Rectal temperature was also measured. At the completion of the experiment, the animals were euthanized with a barbiturate overdose and prepared for histological analysis.\nIschemia was induced using an occluding intraluminal suture. […]\nAnimals were perfused with heparinized saline and brains removed and sectioned into 2 mm thick slices. […] Areas of infarction (white) were then measured using an image analysis system previously described (Yenari, M. A. et al., 1998; Maier, C. et al., 1998)."}, "[3]": {"conditions": "500 nM during reperfusion after 20 minutes global ischemia"}},
  "note": "No end group written: not given here.",
  "data": [
    {"sequence": "SFNSYELGSL (also: conjugated to Antennapedia or Tat carrier; listed as Rattus norvegicus) [δV1-1, tested conjugated to Antennapedia or Tat carrier]", "values": [
      {"measurement": "end diastolic pressure (EDP)", "setting": "whole rat hearts; 500 nM during first 20 minutes of reperfusion, 5-30 minutes after reperfusion", "value": "approximately 60 mmHg"},
      {"measurement": "coronary perfusion pressure (PP)", "setting": "whole rat hearts; [3]", "value": "reduced"},
      {"measurement": "elevated LVP end diastolic pressure", "setting": "whole rat hearts; [3]", "value": "reduced"},
      {"measurement": "reduction in creatine phosphokinase release compared with vehicle control", "setting": "whole rat hearts; 500 nM during reperfusion after 20 minutes global ischemia, not shown", "value": "~50", "unit": "%"},
      {"measurement": "perfusion pressure (PP) relative to hearts left untreated", "setting": "whole rat hearts; after ischemia and after treatment with 500 nM δV1-1", "value": "about 75%"},
      {"measurement": "infarct area within the area at risk (heart slices)", "setting": "adult female pigs [1]", "value": "significantly reduced infarct area"},
      {"measurement": "percent of infarct of the area at risk compared with untreated animals", "setting": "adult female pigs [1]", "value": "nearly two-fold lower"},
      {"measurement": "blood samples and tissue samples of lung, liver, brain, gut, kidney, pathology", "setting": "adult female pigs [2]", "value": "All samples were normal and no inflammation or tissue abnormalities were observed"},
      {"measurement": "adverse effect of two injections", "setting": "mouse model; mouse model", "value": "no adverse effect"},
      {"measurement": "blood analyses", "setting": "mouse model; two injections", "value": "normal"},
      {"measurement": "kidney, liver, brain, and lung functions", "setting": "mouse model; two injections", "value": "normal"},
      {"measurement": "brain infarct area", "setting": "Sprague-Dawley rats", "value": "significant reduction"}
    ]}
  ]
}
